Measured values: the supplement of paper PMC10733146

Columns and labels:
Test in all cases: viability relative to DMSO control (fraction); higher = less drug effect (more viable cells)
Conditions in all cases: 48 h
[1] = test system: primary AML patient cells (S019)
In short: (§1)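 Using 384-well plates with compounds already plated at five concentrations, one well per concentration, 4 × 10^4 primary mononuclear tumour cells were added per well. Cells were Ficoll-isolated from blood or bone marrow or came from processed lymph node, fresh or cryopreserved. They were kept for 48 h at 37 °C and 5% CO2 in RPMI-1640 supplemented with penicillin/streptomycin, L-glutamine and human serum, and viability was read as CellTiter-Glo luminescence relative to the median of 16 inner DMSO wells.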

[2] = test system: primary MCL patient cells (S041)
In short: as §1

[3] = test system: primary CLL patient cells (S031)
In short: as §1

[4] = test system: primary AML patient cells (S007)
In short: as §1

[5] = test system: primary DLBCL patient cells (S082)
In short: as §1

[6] = test system: primary AML patient cells (S091)
In short: as §1

[7] = test system: primary AML patient cells (S085)
In short: as §1

[8] = test system: primary AML patient cells (S037)
In short: as §1

[9] = test system: primary T-NHL patient cells (S058)
In short: as §1

[10] = test system: primary AML patient cells (S089)
In short: as §1

[11] = test system: primary AML patient cells (S060)
In short: as §1

[12] = test system: primary B-PLL patient cells (S016)
In short: as §1

[13] = test system: primary AML patient cells (S071)
In short: as §1

[14] = test system: primary DLBCL patient cells (S049)
In short: as §1

[15] = test system: primary ALL patient cells (S088)
In short: as §1

[16] = test system: primary DLBCL patient cells (S076)
In short: as §1

[17] = test system: primary AML patient cells (S011)
In short: as §1

[18] = test system: primary FL patient cells (S087)
In short: as §1

SMILES: Cc1cc(Nc2ncc(Cl)c(Nc3ccccc3S(=O)(=O)C(C)C)n2)c(OC(C)C)cc1C1CCNCC1 [Ceritinib]
- viability ([1]; 0.024 µM): 1.08
- viability ([1]; 0.12 µM): 1
- viability ([1]; 0.6 µM): 1.03
- viability ([1]; 3 µM): 0.773
- viability ([1]; 15 µM): 0.0262
- viability ([2]; 0.024 µM): 0.966
- viability ([2]; 0.12 µM): 0.966
- viability ([2]; 0.6 µM): 0.9
- viability ([2]; 3 µM): 0.654
- viability ([2]; 15 µM): 0.0173
- viability ([3]; 0.024 µM): 1
- viability ([3]; 0.12 µM): 0.899
- viability ([3]; 0.6 µM): 0.838
- viability ([3]; 3 µM): 0.628
- viability ([3]; 15 µM): 0.018
- viability ([4]; 0.024 µM): 0.837
- viability ([4]; 0.12 µM): 0.718
- viability ([4]; 0.6 µM): 0.559
- viability ([4]; 3 µM): 0.173
- viability ([4]; 15 µM): 0.0192
- viability ([5]; 0.024 µM): 1.05
- viability ([5]; 0.12 µM): 1.04
- viability ([5]; 0.6 µM): 0.617
- viability ([5]; 3 µM): 0.321
- viability ([5]; 15 µM): 0.0186
- viability ([6]; 0.024 µM): 0.947
- viability ([6]; 0.12 µM): 0.77
- viability ([6]; 0.6 µM): 0.436
- viability ([6]; 3 µM): 0.176
- viability ([6]; 15 µM): 0.0224
- viability ([7]; 0.024 µM): 1.02
- viability ([7]; 0.12 µM): 0.875
- viability ([7]; 0.6 µM): 0.62
- viability ([7]; 3 µM): 0.49
- viability ([7]; 15 µM): 0.0171
- viability ([8]; 0.024 µM): 1.5
- viability ([8]; 0.12 µM): 0.922
- viability ([8]; 0.6 µM): 1.12
- viability ([8]; 3 µM): 0.742
- viability ([8]; 15 µM): 0.296
- viability ([9]; 0.024 µM): 1.03
- viability ([9]; 0.12 µM): 0.924
- viability ([9]; 0.6 µM): 0.961
- viability ([9]; 3 µM): 0.626
- viability ([9]; 15 µM): 0.023
- viability ([10]; 0.024 µM): 0.974
- viability ([10]; 0.12 µM): 0.866
- viability ([10]; 0.6 µM): 0.562
- viability ([10]; 3 µM): 0.393
- viability ([10]; 15 µM): 0.0151
- viability ([11]; 0.024 µM): 1
- viability ([11]; 0.12 µM): 0.981
- viability ([11]; 0.6 µM): 1.03
- viability ([11]; 3 µM): 0.947
- viability ([11]; 15 µM): 0.0203
- viability ([12]; 0.024 µM): 0.945
- viability ([12]; 0.12 µM): 0.832
- viability ([12]; 0.6 µM): 0.743
- viability ([12]; 3 µM): 0.555
- viability ([12]; 15 µM): 0.0198
- viability ([13]; 0.024 µM): 0.865
- viability ([13]; 0.12 µM): 0.781
- viability ([13]; 0.6 µM): 0.476
- viability ([13]; 3 µM): 0.174
- viability ([13]; 15 µM): 0.0165
- viability ([14]; 0.024 µM): 0.897
- viability ([14]; 0.12 µM): 0.84
- viability ([14]; 0.6 µM): 0.771
- viability ([14]; 3 µM): 0.4
- viability ([14]; 15 µM): 0.0197
- viability ([15]; 0.024 µM): 0.923
- viability ([15]; 0.12 µM): 0.788
- viability ([15]; 0.6 µM): 0.558
- viability ([15]; 3 µM): 0.35
- viability ([15]; 15 µM): 0.0155
- viability ([16]; 0.024 µM): 1.02
- viability ([16]; 0.12 µM): 0.996
- viability ([16]; 0.6 µM): 0.964
- viability ([16]; 3 µM): 0.721
- viability ([16]; 15 µM): 0.0181
- viability ([17]; 0.024 µM): 0.846
- viability ([17]; 0.12 µM): 0.942
- viability ([17]; 0.6 µM): 0.631
- viability ([17]; 3 µM): 0.182
- viability ([17]; 15 µM): 0.0175
- viability ([18]; 0.024 µM): 0.968
- viability ([18]; 0.12 µM): 0.981
- viability ([18]; 0.6 µM): 0.883
- viability ([18]; 3 µM): 0.734
- viability ([18]; 15 µM): 0.0188
